Results from patent publication US20250249060A1, “APPLICATION METHOD OF ACTIVE PORTION OF LIGUSTICUM CHUANXIONG IN PREPARATION OF ANTI-GOUT DRUG” (Shaanxi University of Chinese Medicine, priority 2024, published 2025).

Experiments:
[1] = biological target: xanthine oxidase (XOD, or XO) (Homo sapiens, UniProt P47989); test: Inhibitory effect of extracts/liquid-liquid extracts on XOD activity in vitro (96-well plate, absorbance at 295 nm); assay type: biochemical; settings: tested samples as 1 mg/mL solution, allopurinol positive control 2 mg in 1 mL DMSO + 8 mL PBS
Procedure: 2.1 Buffer solution preparation: 0.4780 g of potassium phosphate monobasic (KH2PO4), 3.473 g of dipotassium hydrogen phosphate trihydrate (K2HPO4·3H2O) and 10.00 milligrams (mg) of ethylenediaminetetraacetic acid disodium salt (EDTA-2Na) are accurately weighed, and then placed in a 250 mL volumetric flask, and diluted to volume with distilled water to obtain the buffer solution. 2.2 Substrate preparation: 3.65 mg of xanthine is accurately weighed, and then added into the buffer solution to dilute to volume of 50 mL, and the xanthine is dissolved with ultrasound to obtain the substrate. 2.3 Enzyme solution preparation: XOD (5 units abbreviated as U) is taken and diluted with 50 mL of the buffer solution to obtain a diluted solution, and the diluted solution is subpackaged in sample bottles to obtain the enzyme solution, and kept in a temperature of −70 Celsius degree (° C.) for later use. […] After that the solution is filtered with a microporous filter membrane to obtain the samples to be tested for later use. 2.6 XOD activity determination: […] […] 2.8 A half maximal inhibitory concentration (IC50) value measurement: the active portion is prepared into 7 series concentrations to explore a dose-effect relationship based on results of the activity test, and IC50 value of the active portion is calculated through a GraphPad prism 8 software.

hyperuricemia mice = test: Serum uric acid level in hyperuricemia mice; assay type: in vivo; settings: gavage 7 days
serum XOD = biological target: T1, serum XOD (Rattus norvegicus, UniProt P22985); test: Serum XOD activity in hyperuricemia rats; assay type: in vivo; settings: model group 30 U/L
T1 construct: The activity of the serum XOD of hyperuricemia in rats is measured by using the colorimetry; from tissue; host or cells: serum of hyperuricemia rats

[2] = system: acute gouty arthritis mice; test: Paw swelling degree in MSU-induced acute gouty arthritis mice; assay type: in vivo
Procedure: Livers of the mice are taken and kept in a temperature of −80° C. for later use. The normal control group of mice is injected with 0.1 mL of physiological saline onto right foot pad of the mice after 1 h gavage on the 7th day. […] 0 h, 4 h, 8 h, 12 h and 24 h after the MSU crystal suspension injection, paw volumes of the mice are measured by using the paw volume measuring instrument, the paw swelling degrees of the mice are calculated, and the calculation formula is as follows: [formula] • where Ct represents a paw volume at different time points after injection, and Co represents a paw volume at 0 h after injection.

[3] = Body weight gain of mice before and after treatment; settings: allopurinol 40 mg/kg·d, colchicine 1 mg/kg·d, extract 500 mg/kg·d

T1 sequence (P22985 whole entry): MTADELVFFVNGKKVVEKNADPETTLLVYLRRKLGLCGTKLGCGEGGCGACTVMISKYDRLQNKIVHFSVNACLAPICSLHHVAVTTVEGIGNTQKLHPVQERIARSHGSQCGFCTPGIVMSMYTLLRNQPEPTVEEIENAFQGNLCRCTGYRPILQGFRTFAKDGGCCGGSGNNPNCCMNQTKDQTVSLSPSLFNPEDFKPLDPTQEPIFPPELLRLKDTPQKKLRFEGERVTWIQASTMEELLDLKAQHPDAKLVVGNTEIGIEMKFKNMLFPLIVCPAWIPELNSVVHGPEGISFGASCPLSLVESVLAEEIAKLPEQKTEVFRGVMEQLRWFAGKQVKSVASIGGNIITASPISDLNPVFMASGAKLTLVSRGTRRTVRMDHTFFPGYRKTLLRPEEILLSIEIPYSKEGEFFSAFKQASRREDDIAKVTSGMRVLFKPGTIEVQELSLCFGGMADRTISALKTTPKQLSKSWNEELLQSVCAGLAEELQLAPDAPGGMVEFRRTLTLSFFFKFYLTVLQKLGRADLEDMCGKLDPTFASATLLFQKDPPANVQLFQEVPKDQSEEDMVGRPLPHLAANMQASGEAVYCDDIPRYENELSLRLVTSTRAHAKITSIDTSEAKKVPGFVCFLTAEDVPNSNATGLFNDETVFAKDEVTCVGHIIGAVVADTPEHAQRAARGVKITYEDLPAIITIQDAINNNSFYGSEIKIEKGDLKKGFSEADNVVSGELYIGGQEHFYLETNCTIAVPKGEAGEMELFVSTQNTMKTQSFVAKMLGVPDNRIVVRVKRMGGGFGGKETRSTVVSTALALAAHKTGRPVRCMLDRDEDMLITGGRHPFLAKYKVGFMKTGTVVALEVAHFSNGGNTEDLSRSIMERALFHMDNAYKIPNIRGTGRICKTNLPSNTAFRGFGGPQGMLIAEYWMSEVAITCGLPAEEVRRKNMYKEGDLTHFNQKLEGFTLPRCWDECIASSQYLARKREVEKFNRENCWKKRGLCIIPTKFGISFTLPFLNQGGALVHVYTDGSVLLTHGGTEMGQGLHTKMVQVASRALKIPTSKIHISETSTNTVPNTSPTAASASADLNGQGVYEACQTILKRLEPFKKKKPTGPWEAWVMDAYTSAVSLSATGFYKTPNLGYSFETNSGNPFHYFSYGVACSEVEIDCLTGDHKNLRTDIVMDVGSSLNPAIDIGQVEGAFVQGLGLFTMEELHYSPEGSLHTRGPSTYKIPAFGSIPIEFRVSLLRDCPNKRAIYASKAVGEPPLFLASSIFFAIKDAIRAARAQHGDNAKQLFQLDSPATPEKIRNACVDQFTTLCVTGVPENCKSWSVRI
Sequence of xanthine oxidase (XOD, or XO) (P47989 whole entry, species assumed): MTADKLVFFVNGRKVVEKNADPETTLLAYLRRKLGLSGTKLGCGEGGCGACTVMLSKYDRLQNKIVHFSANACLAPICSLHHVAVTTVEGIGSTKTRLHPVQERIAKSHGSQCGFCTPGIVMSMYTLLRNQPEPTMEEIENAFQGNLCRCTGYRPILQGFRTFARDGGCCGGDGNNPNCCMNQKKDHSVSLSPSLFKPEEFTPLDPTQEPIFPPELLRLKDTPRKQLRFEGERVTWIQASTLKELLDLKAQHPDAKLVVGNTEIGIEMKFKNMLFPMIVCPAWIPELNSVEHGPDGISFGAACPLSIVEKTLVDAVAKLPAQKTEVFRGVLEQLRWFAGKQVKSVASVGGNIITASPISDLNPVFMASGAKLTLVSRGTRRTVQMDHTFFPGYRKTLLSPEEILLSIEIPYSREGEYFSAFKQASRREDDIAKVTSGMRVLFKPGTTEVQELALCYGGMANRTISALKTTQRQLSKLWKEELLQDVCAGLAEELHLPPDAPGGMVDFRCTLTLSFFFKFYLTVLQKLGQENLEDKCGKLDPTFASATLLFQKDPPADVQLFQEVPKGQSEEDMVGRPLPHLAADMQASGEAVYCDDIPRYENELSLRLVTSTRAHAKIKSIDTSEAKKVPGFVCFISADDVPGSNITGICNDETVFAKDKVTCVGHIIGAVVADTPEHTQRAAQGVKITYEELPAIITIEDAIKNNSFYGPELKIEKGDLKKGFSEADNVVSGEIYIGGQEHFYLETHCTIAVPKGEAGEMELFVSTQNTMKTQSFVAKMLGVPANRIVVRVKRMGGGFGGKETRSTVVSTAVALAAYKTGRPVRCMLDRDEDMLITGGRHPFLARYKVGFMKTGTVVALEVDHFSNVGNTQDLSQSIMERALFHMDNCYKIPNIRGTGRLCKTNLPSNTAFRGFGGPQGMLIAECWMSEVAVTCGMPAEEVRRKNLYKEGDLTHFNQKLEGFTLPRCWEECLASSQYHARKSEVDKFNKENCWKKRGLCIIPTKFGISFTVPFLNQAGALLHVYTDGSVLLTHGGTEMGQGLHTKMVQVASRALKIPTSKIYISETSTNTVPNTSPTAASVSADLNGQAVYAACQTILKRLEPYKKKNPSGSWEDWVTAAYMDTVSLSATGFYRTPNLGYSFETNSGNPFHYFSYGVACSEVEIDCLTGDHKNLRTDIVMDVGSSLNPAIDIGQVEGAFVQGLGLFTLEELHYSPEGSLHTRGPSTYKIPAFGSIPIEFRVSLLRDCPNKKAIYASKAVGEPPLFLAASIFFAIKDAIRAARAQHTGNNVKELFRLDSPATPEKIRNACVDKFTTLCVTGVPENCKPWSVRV

Structure (SMILES) | inhibition rate on activity of the XOD [1] [%] | decrease of serum uric acid level compared to the model group (hyperuricemia mice) [%] | serum uric acid level (hyperuricemia mice; model 286.82 μmol/L) [µmol/L] | serum XOD activity compared to the model group (serum XOD) | decrease of paw swelling degree compared with the model group ([2]; 24 h after MSU injection) [%] | decrease of paw swelling degree compared with the model group ([2]; at 4 h, 8 h, 12 h and 24 h) | weight gain compared to the normal control group [3]
Oc1ncnc2[nH]ncc12 [allopurinol] | 96.78 | 75.16 | 68.72 | significantly decreases |  |  | 
COc1cc2c(c(OC)c1OC)-c1ccc(OC)c(=O)cc1[C@@H](NC(C)=O)CC2 [colchicine] |  |  |  |  | 15.32 | more than 9% | significantly lower
